What was measured:
[1] = system: blackgrass; test: Test Example 5: herbicidal effect by foliage application, plastic box (Table 20, symbol J); type: in vivo, blackgrass (Alopecurus myosuroides); details: foliage application, AAH 320 g/ha, evaluated three weeks after application
Procedure, shortened: (§1)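 Sow seeds spot-wise in sterilized diluvial soil; cover with ~1.5 cm soil. Grow 14 days in greenhouse, 25° C. to 30° C. Spray foliage with emulsion diluted to predetermined amount. Rate effect after 3 weeks.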

[2] = system: oval-leafed pondweed; test: Test Example 1: herbicidal activity, application before weed generation under submerged conditions (Table 16, symbol C); type: in vivo, oval-leafed pondweed (Monochoria vaginalis); details: 320 g/ha applied herbicide
Procedure, shortened: (§2)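 Emulsion formulation, water-diluted to set dose, was put onto the flooded surface (4 cm depth, alluvial soil) the same day weeds were sown and 2.5-leaf rice transplanted. After 3 weeks at 25-30 °C under glass, each species was rated 0 (≤5% kill) to 5 (≥90% kill).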

[3] = system: velvetleaf; test: Test Example 5: herbicidal effect by foliage application, plastic box (Table 20, symbol M); type: in vivo, velvetleaf (Abutilon theophrasti); details: foliage application, AAH 320 g/ha, evaluated three weeks after application
Procedure, shortened: as §1

[4] = system: chickweed; test: Test Example 4: herbicidal effect by soil treatment (Table 19, symbol P); type: in vivo, common chickweed (Stellaria media); details: amount of applied herbicide 320 g/ha
Procedure, shortened: (§3)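 Soil-surface application: an emulsion agent diluted with water to the predetermined dose is sprayed uniformly over seeds lying under roughly 1.5 cm of sterilized diluvial soil. Boxes stay in a greenhouse at 25° C. to 30° C. Three weeks later, each species is graded on previously defined criteria.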

[5] = system: southern crabgrass; test: Test Example 5: herbicidal effect by foliage application, plastic box (Table 20, symbol F); type: in vivo, southern crabgrass (Digitaria ciliaris); details: foliage application, AAH 320 g/ha, evaluated three weeks after application
Procedure, shortened: as §1

[6] = system: barnyard grass; test: Test Example 5: herbicidal effect by foliage application, plastic box (Table 20, symbol H); type: in vivo, barnyard grass (Echinochloa crus-galli); details: foliage application, AAH 320 g/ha, evaluated three weeks after application
Procedure, shortened: as §1

[7] = system: Italian ryegrass; test: Test Example 5: herbicidal effect by foliage application, plastic box (Table 20, symbol K); type: in vivo, Italian ryegrass (Lolium multiflorum); details: foliage application, AAH 320 g/ha, evaluated three weeks after application
Procedure, shortened: as §1

[8] = system: velvetleaf; test: Test Example 4: herbicidal effect by soil treatment (Table 19, symbol M); type: in vivo, velvetleaf (Abutilon theophrasti); details: amount of applied herbicide 320 g/ha
Procedure, shortened: as §3

[9] = system: blackgrass; test: Test Example 4: herbicidal effect by soil treatment (Table 19, symbol J); type: in vivo, blackgrass (Alopecurus myosuroides); details: amount of applied herbicide 320 g/ha
Procedure, shortened: as §3

[10] = system: late watergrass; test: Test Example 1: herbicidal activity, application before weed generation under submerged conditions (Table 16, symbol A); type: in vivo, late watergrass (Echinochloa oryzicola); details: 320 g/ha applied herbicide
Procedure, shortened: as §2

[11] = system: rice flat sedge; test: Test Example 3: herbicidal effect by foliage application, Wagner pot (Table 18, symbol E); type: in vivo, rice flat sedge (Cyperus iria); details: amount of applied herbicide 320 g/ha
Procedure, shortened: (§4)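 Plants were sown in alluvial soil held under 0.1–0.5 cm standing water and grown 14 days in a greenhouse at 25–30 °C. An emulsifiable formulation, water-diluted to the set dose, was then sprayed onto the foliage, and effects were scored three weeks later using previously defined criteria.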

[12] = system: persian speedwell; test: Test Example 4: herbicidal effect by soil treatment (Table 19, symbol R); type: in vivo, Persian speedwell (Veronica persica); details: amount of applied herbicide 320 g/ha
Procedure, shortened: as §3

[13] = system: chickweed; test: Test Example 5: herbicidal effect by foliage application, plastic box (Table 20, symbol P); type: in vivo, common chickweed (Stellaria media); details: foliage application, AAH 320 g/ha, evaluated three weeks after application
Procedure, shortened: as §1

[14] = system: Chinese sprangletop; test: Test Example 3: herbicidal effect by foliage application, Wagner pot (Table 18, symbol D); type: in vivo, chinese sprangletop (Leptochloa chinensis); details: amount of applied herbicide 320 g/ha
Procedure, shortened: as §4

[15] = system: green foxtail; test: Test Example 5: herbicidal effect by foliage application, plastic box (Table 20, symbol G); type: in vivo, green foxtail (Setaria viridis); details: foliage application, AAH 320 g/ha, evaluated three weeks after application
Procedure, shortened: as §1

[16] = system: windgrass; test: Test Example 4: herbicidal effect by soil treatment (Table 19, symbol L); type: in vivo, windgrass (Apera spica-venti); details: amount of applied herbicide 320 g/ha
Procedure, shortened: as §3

[17] = system: lambsquarters; test: Test Example 5: herbicidal effect by foliage application, plastic box (Table 20, symbol O); type: in vivo, lambsquarters (Chenopodium album); details: foliage application, AAH 320 g/ha, evaluated three weeks after application
Procedure, shortened: as §1

[18] = system: barnyard grass; test: Test Example 4: herbicidal effect by soil treatment (Table 19, symbol H); type: in vivo, barnyard grass (Echinochloa crus-galli); details: amount of applied herbicide 320 g/ha
Procedure, shortened: as §3

[19] = system: green foxtail; test: Test Example 4: herbicidal effect by soil treatment (Table 19, symbol G); type: in vivo, green foxtail (Setaria viridis); details: amount of applied herbicide 320 g/ha
Procedure, shortened: as §3

[20] = system: wild oat; test: Test Example 5: herbicidal effect by foliage application, plastic box (Table 20, symbol I); type: in vivo, wild oat (Avena fatua); details: foliage application, AAH 320 g/ha, evaluated three weeks after application
Procedure, shortened: as §1

[21] = system: barnyard grass; test: Test Example 3: herbicidal effect by foliage application, Wagner pot (Table 18, symbol H); type: in vivo, barnyard grass (Echinochloa crus-galli); details: amount of applied herbicide 320 g/ha
Procedure, shortened: as §4

[22] = system: persian speedwell; test: Test Example 5: herbicidal effect by foliage application, plastic box (Table 20, symbol R); type: in vivo, Persian speedwell (Veronica persica); details: foliage application, AAH 320 g/ha, evaluated three weeks after application
Procedure, shortened: as §1

[23] = system: redroot pigweed; test: Test Example 5: herbicidal effect by foliage application, plastic box (Table 20, symbol N); type: in vivo, redroot pigweed (Amaranthus retroflexus); details: foliage application, AAH 320 g/ha, evaluated three weeks after application
Procedure, shortened: as §1

[24] = system: southern crabgrass; test: Test Example 4: herbicidal effect by soil treatment (Table 19, symbol F); type: in vivo, southern crabgrass (Digitaria ciliaris); details: amount of applied herbicide 320 g/ha
Procedure, shortened: as §3

[25] = system: windgrass; test: Test Example 5: herbicidal effect by foliage application, plastic box (Table 20, symbol L); type: in vivo, windgrass (Apera spica-venti); details: foliage application, AAH 320 g/ha, evaluated three weeks after application
Procedure, shortened: as §1

[26] = system: Japanese bulrush; test: Test Example 1: herbicidal activity, application before weed generation under submerged conditions (Table 16, symbol B); type: in vivo, Japanese bulrush (Schoenoplectus juncoides); details: 320 g/ha applied herbicide
Procedure, shortened: as §2

[27] = system: Italian ryegrass; test: Test Example 4: herbicidal effect by soil treatment (Table 19, symbol K); type: in vivo, Italian ryegrass (Lolium multiflorum); details: amount of applied herbicide 320 g/ha
Procedure, shortened: as §3

[28] = system: wild oat; test: Test Example 4: herbicidal effect by soil treatment (Table 19, symbol I); type: in vivo, wild oat (Avena fatua); details: amount of applied herbicide 320 g/ha
Procedure, shortened: as §3

[29] = system: redroot pigweed; test: Test Example 4: herbicidal effect by soil treatment (Table 19, symbol N); type: in vivo, redroot pigweed (Amaranthus retroflexus); details: amount of applied herbicide 320 g/ha
Procedure, shortened: as §3

[30] = system: lambsquarters; test: Test Example 4: herbicidal effect by soil treatment (Table 19, symbol O); type: in vivo, lambsquarters (Chenopodium album); details: amount of applied herbicide 320 g/ha
Procedure, shortened: as §3

SMILES: CSCc1ccc(-c2sc3ccc(F)cc3c2-c2c(O)c(C)nn(C)c2=O)cc1 [2-317]
- J: blackgrass, herbicidal effect (criteria 0-5) [1]: 4 (Herbicidal rate of 70% or more and less than 90%)
- Herbicidal effect on C: oval-leafed pondweed (grade 0-5) [2]: 0 (Herbicidal rate of 5% or less (almost no effect))
- M: velvetleaf, herbicidal effect (criteria 0-5) [3]: 5 (Herbicidal rate of 90% or more (almost completely withered))
- herbicidal effect on P: chickweed [4]: 0 (Herbicidal rate of 5% or less (almost no effect))
- F: southern crabgrass, herbicidal effect (criteria 0-5) [5]: 5 (Herbicidal rate of 90% or more (almost completely withered))
- H: barnyard grass, herbicidal effect (criteria 0-5) [6]: 5 (Herbicidal rate of 90% or more (almost completely withered))
- K: Italian ryegrass, herbicidal effect (criteria 0-5) [7]: 5 (Herbicidal rate of 90% or more (almost completely withered))
- herbicidal effect on M: velvetleaf [8]: 4 (Herbicidal rate of 70% or more and less than 90%)
- herbicidal effect on J: blackgrass [9]: 1 (Herbicidal rate of 5% or more and less than 20%)
- Herbicidal effect on A: late watergrass (grade 0-5) [10]: 3 (Herbicidal rate of 40% or more and less than 70%)
- herbicidal effect on E: rice flat sedge [11]: 5 (Herbicidal rate of 90% or more (almost completely withered))
- herbicidal effect on R: persian speedwell [12]: 3 (Herbicidal rate of 40% or more and less than 70%)
- P: chickweed, herbicidal effect (criteria 0-5) [13]: 5 (Herbicidal rate of 90% or more (almost completely withered))
- herbicidal effect on D: Chinese sprangletop [14]: 2 (Herbicidal rate of 20% or more and less than 40%)
- G: green foxtail, herbicidal effect (criteria 0-5) [15]: 5 (Herbicidal rate of 90% or more (almost completely withered))
- herbicidal effect on L: windgrass [16]: 0 (Herbicidal rate of 5% or less (almost no effect))
- O: lambsquarters, herbicidal effect (criteria 0-5) [17]: 5 (Herbicidal rate of 90% or more (almost completely withered))
- herbicidal effect on H: barnyard grass [18]: 5 (Herbicidal rate of 90% or more (almost completely withered))
- herbicidal effect on G: green foxtail [19]: 4 (Herbicidal rate of 70% or more and less than 90%)
- I: wild oat, herbicidal effect (criteria 0-5) [20]: 5 (Herbicidal rate of 90% or more (almost completely withered))
- herbicidal effect on H: barnyard grass [21]: 5 (Herbicidal rate of 90% or more (almost completely withered))
- R: persian speedwell, herbicidal effect (criteria 0-5) [22]: 5 (Herbicidal rate of 90% or more (almost completely withered))
- N: redroot pigweed, herbicidal effect (criteria 0-5) [23]: 5 (Herbicidal rate of 90% or more (almost completely withered))
- herbicidal effect on F: southern crabgrass [24]: 4 (Herbicidal rate of 70% or more and less than 90%)
- L: windgrass, herbicidal effect (criteria 0-5) [25]: 5 (Herbicidal rate of 90% or more (almost completely withered))
- Herbicidal effect on B: Japanese bulrush (grade 0-5) [26]: 0 (Herbicidal rate of 5% or less (almost no effect))
- herbicidal effect on K: Italian ryegrass [27]: 4 (Herbicidal rate of 70% or more and less than 90%)
- herbicidal effect on I: wild oat [28]: 0 (Herbicidal rate of 5% or less (almost no effect))
- herbicidal effect on N: redroot pigweed [29]: 5 (Herbicidal rate of 90% or more (almost completely withered))
- herbicidal effect on O: lambsquarters [30]: 5 (Herbicidal rate of 90% or more (almost completely withered))
